Experimental data reported in PubChem BioAssay AID248 (DTP/NCI, 2004).
Values joined by “and” are separate entries in the source; they are usually repeats but may differ in a detail not shown here. Identical values can stand only once. Toxic doses and inconclusive results are not listed. Rule as the data show it: active = T/C of 150% or more; inactive = T/C below 125%.

System: L1210 leukemia ip in BDF1 mice, survival T/C
Assay: NCI In Vivo Anticancer Drug Screen. Data for tumor model L1210 Leukemia (intraperitoneal) in B6D2F1 (BDF1) mice
Conditions: endpoint: mean survival time, higher = longer survival
How it was run: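 Ratio derived from survival: compound-dosed mice over vehicle-dosed mice, all bearing a transplantable tumor.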

[1] = dose: 100.0 mg/kg/injection, schedule: Q01DX009 (ip), vehicle: Klucel (hydroxypropylcellulose) (HPC)
[2] = dose: 100.0 mg/kg/injection, schedule: Q04DX003 (ip), vehicle: Klucel (hydroxypropylcellulose) (HPC)
[3] = dose: 200.0 mg/kg/injection, schedule: Q01DX009 (ip), vehicle: Klucel (hydroxypropylcellulose) (HPC)
[4] = dose: 200.0 mg/kg/injection, schedule: Q04DX003 (ip), vehicle: Klucel (hydroxypropylcellulose) (HPC)
[5] = dose: 400.0 mg/kg/injection, schedule: Q01DX009 (ip), vehicle: Klucel (hydroxypropylcellulose) (HPC)
[6] = dose: 400.0 mg/kg/injection, schedule: Q04DX003 (ip), vehicle: Klucel (hydroxypropylcellulose) (HPC)
[7] = dose: 100.0 mg/kg/injection, schedule: Q04DX002 (ip), vehicle: saline with Tween-80
[8] = dose: 200.0 mg/kg/injection, schedule: Q04DX002 (ip), vehicle: saline with Tween-80
[9] = dose: 400.0 mg/kg/injection, schedule: Q04DX002 (ip), vehicle: saline with Tween-80
[10] = dose: 100.0 mg/kg/injection, schedule: Q04DX003 (ip), vehicle: saline
[11] = dose: 200.0 mg/kg/injection, schedule: Q04DX003 (ip), vehicle: saline
[12] = dose: 100.0 mg/kg/injection, schedule: Q04DX003 (ip), vehicle: other
[13] = dose: 200.0 mg/kg/injection, schedule: Q04DX003 (ip), vehicle: other
[14] = dose: 400.0 mg/kg/injection, schedule: Q04DX003 (ip), vehicle: other
[15] = dose: 100.0 mg/kg/injection, schedule: Q01DX009 (ip), vehicle: saline with Tween-80
[16] = dose: 100.0 mg/kg/injection, schedule: Q04DX003 (ip), vehicle: saline with Tween-80
[17] = dose: 200.0 mg/kg/injection, schedule: Q01DX009 (ip), vehicle: saline with Tween-80
[18] = dose: 200.0 mg/kg/injection, schedule: Q04DX003 (ip), vehicle: saline with Tween-80
[19] = dose: 400.0 mg/kg/injection, schedule: Q01DX009 (ip), vehicle: saline with Tween-80
[20] = dose: 400.0 mg/kg/injection, schedule: Q04DX003 (ip), vehicle: saline with Tween-80
[21] = dose: 100.0 mg/kg/injection, schedule: Q01DX001 (ip), vehicle: carboxymethylcellulose (CMC)
[22] = dose: 200.0 mg/kg/injection, schedule: Q01DX001 (ip), vehicle: carboxymethylcellulose (CMC)
[23] = dose: 400.0 mg/kg/injection, schedule: Q01DX001 (ip), vehicle: carboxymethylcellulose (CMC)

Measured: T/C

CC(=O)Nc1nc2ncc(CCN(C)c3ccc(C(=O)O)cc3)nc2c(=O)[nH]1
inactive: dose: 75.0 mg/kg/injection, schedule: Q01DX001 (ip), vehicle: saline 102 % of control | dose: 150.0 mg/kg/injection, schedule: Q01DX001 (ip), vehicle: saline 101 % of control

Cc1nc(Br)c(C(O)c2ccccc2)n1C (stereo not drawn)
inactive: [1] 100 % of control and 103 % of control | dose: 100.0 mg/kg/injection, schedule: Q04DX002 (ip), vehicle: Klucel (hydroxypropylcellulose) (HPC) 101 % of control and 103 % of control | [2] 93 % of control | [3] 95 % of control and 109 % of control | dose: 200.0 mg/kg/injection, schedule: Q04DX002 (ip), vehicle: Klucel (hydroxypropylcellulose) (HPC) 101 % of control and 103 % of control | [4] 97 % of control | [5] 95 % of control and 117 % of control | dose: 400.0 mg/kg/injection, schedule: Q04DX002 (ip), vehicle: Klucel (hydroxypropylcellulose) (HPC) 98 % of control and 100 % of control | [6] 95 % of control

O=P1(N(CCF)CCCl)NCCCO1 (stereo not drawn)
inactive: dose: 10.0 mg/kg/injection, schedule: Q01DX Z (ip), vehicle: other 94 % of control | dose: 30.0 mg/kg/injection, schedule: Q01DX Z (ip), vehicle: other 102 % of control

O=P(O)(Nc1ccccc1)Nc1ccccc1
inactive: [7] 113 % of control | [8] 103 % of control | [9] 113 % of control

O=C(Nc1ccccc1F)N(CC(O)c1ccccc1)C1CCCCC1 (stereo not drawn)
inactive: [1] 97 % of control | [3] 95 % of control | [5] 94 % of control

CC(COC(=O)c1ccccc1)(COC(=O)c1ccccc1)COC(=O)c1ccccc1
inactive: [1] 96 % of control | [2] 113 % of control | [3] 104 % of control | [4] 99 % of control | [5] 107 % of control | [6] 96 % of control

Cc1cccc(C)c1NC(=O)NCCCl
inactive: dose: 50.0 mg/kg/injection, schedule: Q01DX001 (ip), vehicle: Klucel (hydroxypropylcellulose) (HPC) 97 % of control | dose: 100.0 mg/kg/injection, schedule: Q01DX001 (ip), vehicle: Klucel (hydroxypropylcellulose) (HPC) 108 % of control | [10] 105 % of control | dose: 200.0 mg/kg/injection, schedule: Q01DX001 (ip), vehicle: Klucel (hydroxypropylcellulose) (HPC) 101 % of control | [11] 97 % of control | dose: 400.0 mg/kg/injection, schedule: Q04DX003 (ip), vehicle: saline 100 % of control

Nc1nc(-c2cccnc2)nc2c1cnn2-c1ccccc1
inactive: dose: 100.0 mg/kg/injection, schedule: Q01DX001 (ip), vehicle: other 100 % of control | [12] 97 % of control | dose: 200.0 mg/kg/injection, schedule: Q01DX001 (ip), vehicle: other 95 % of control | [13] 104 % of control | dose: 400.0 mg/kg/injection, schedule: Q01DX001 (ip), vehicle: other 94 % of control | [14] 109 % of control

O=C1CCC2CCC(CC2)O1
inactive: dose: 5.0 mg/kg/injection, schedule: Q01DX001 (ip), vehicle: saline 119 % of control | dose: 10.0 mg/kg/injection, schedule: Q01DX001 (ip), vehicle: saline 92 % of control | dose: 20.0 mg/kg/injection, schedule: Q01DX001 (ip), vehicle: saline 97 % of control

COc1ccc(C2(C#N)CC2)cc1
inactive: [15] 86 % of control | [16] 101 % of control | [17] 88 % of control | [18] 101 % of control | [19] 103 % of control | [20] 103 % of control

Cc1cc(N(CCOS(C)(=O)=O)CCOS(C)(=O)=O)ccc1C=Nc1cc(Cl)c(O)c(Cl)c1
inactive: dose: 20.0 mg/kg/injection, schedule: Q04DX003 (ip), vehicle: Klucel (hydroxypropylcellulose) (HPC) 121 % of control | dose: 40.0 mg/kg/injection, schedule: Q04DX003 (ip), vehicle: Klucel (hydroxypropylcellulose) (HPC) 118 % of control | dose: 80.0 mg/kg/injection, schedule: Q04DX003 (ip), vehicle: Klucel (hydroxypropylcellulose) (HPC) 100 % of control

CN(C)c1ccc(/C=N/N=C(N)N)cc1
inactive: dose: 15.0 mg/kg/injection, schedule: Q01DX Z (ip), vehicle: saline 89 % of control | dose: 30.0 mg/kg/injection, schedule: Q01DX Z (ip), vehicle: saline 92 % of control | dose: 30.0 mg/kg/injection, schedule: Q01DX Z (oral), vehicle: other 100 % of control | dose: 60.0 mg/kg/injection, schedule: Q01DX Z (ip), vehicle: saline 100 % of control | dose: 60.0 mg/kg/injection, schedule: Q01DX Z (oral), vehicle: other 97 % of control | dose: 120.0 mg/kg/injection, schedule: Q01DX Z (oral), vehicle: other 109 % of control

Cc1ccc(NC(=O)ON(C)C)cc1
inactive: dose: 25.0 mg/kg/injection, schedule: Q04DX002 (ip), vehicle: other 99 % of control | dose: 50.0 mg/kg/injection, schedule: Q04DX002 (ip), vehicle: other 96 % of control | dose: 100.0 mg/kg/injection, schedule: Q04DX002 (ip), vehicle: other 92 % of control

CC1(c2ccco2)NC(=O)N(Cl)C1=O (stereo not drawn)
inactive: dose: 6.0 mg/kg/injection, schedule: Q04DX003 (ip), vehicle: saline 93 % of control | dose: 12.0 mg/kg/injection, schedule: Q04DX003 (ip), vehicle: saline 101 % of control | dose: 25.0 mg/kg/injection, schedule: Q01DX009 (ip), vehicle: saline 87 % of control | dose: 32.0 mg/kg/injection, schedule: Q04DX003 (ip), vehicle: saline 95 % of control | dose: 50.0 mg/kg/injection, schedule: Q01DX009 (ip), vehicle: saline 98 % of control | dose: 50.0 mg/kg/injection, schedule: Q04DX003 (ip), vehicle: saline 103 % of control | dose: 100.0 mg/kg/injection, schedule: Q01DX009 (ip), vehicle: saline 88 % of control | [10] 97 % of control and 103 % of control

CC(=O)ON1C(=O)c2cccc3cccc(c23)C1=O
inactive: [7] 102 % of control | [8] 109 % of control

CN(C=O)c1ccc(C(=O)O)cc1
inactive: [21] 123 % of control | [22] 96 % of control | [23] 94 % of control

O=C1N/C(=N\OCc2ccccc2)CC(NOCc2ccccc2)N1C1OC(CO)C(O)C1O (stereo not drawn)
inactive: [10] 92 % of control | [11] 92 % of control

COc1cccc(OC)c1CCO
inactive: dose: 50.0 mg/kg/injection, schedule: Q01DX001 (ip), vehicle: carboxymethylcellulose (CMC) 88 % of control | [21] 102 % of control | [22] 88 % of control | [23] 100 % of control

Cc1ccc([N+](=O)[O-])cc1NC(=O)COc1ccc(Cl)cc1
inactive: [15] 91 % of control | [17] 89 % of control | [19] 89 % of control

COc1ccc(Cc2ccc(O)cc2)cc1
inactive: [12] 90 % of control | [13] 93 % of control | [14] 98 % of control

BrCCC[P+](c1ccccc1)(c1ccccc1)c1ccccc1
inactive: dose: 12.5 mg/kg/injection, schedule: Q01DX009 (ip), vehicle: saline with Tween-80 103 % of control | dose: 25.0 mg/kg/injection, schedule: Q04DX003 (ip), vehicle: saline with Tween-80 97 % of control | dose: 50.0 mg/kg/injection, schedule: Q01DX001 (ip), vehicle: saline 104 % of control | dose: 50.0 mg/kg/injection, schedule: Q04DX003 (ip), vehicle: Klucel (hydroxypropylcellulose) (HPC) 107 % of control | dose: 50.0 mg/kg/injection, schedule: Q04DX003 (ip), vehicle: saline with Tween-80 97 % of control | dose: 100.0 mg/kg/injection, schedule: Q01DX001 (ip), vehicle: saline 116 % of control

CC1(C)Cc2ccccc2C1=O
inactive: [7] 97 % of control | [8] 91 % of control | [9] 94 % of control

CN(C)c1ccc(C=NCCN=Cc2ccc(N(C)C)cc2)cc1
inactive: [16] 98 % of control | [18] 106 % of control | [20] 95 % of control

CCCC(=O)c1cc(C)ccc1OC
inactive: [21] 103 % of control | [22] 106 % of control | [23] 106 % of control
